Measured values: patent publication US10696707B2, “Polyene macrolide derivative” (Shionogi & Co., Ltd., priority 2014, dated 2020)
pIC50: −log10 of the molar value. Like-named read-outs stand apart in the source and are kept apart here.

Tested on: red blood cells (5% RBC suspension)
Experiment: Test Example 2-1: in vitro hemolytic activity test (upper limit 50, 80, 100 or 200 μmol/L)
Assay type: cell-based
Conditions: 5% RBC suspension, 37° C., one hour, read-out: hemolysis IC50
Protocol: Nephrotoxic potentials of the compounds of the present invention except the compounds whose X is —N(R^F)—CO—X^1 and X^1 is the group represented by formula (III) and T is —N(R^a5)— were investigated by in vitro hemolytic activity test under the condition, in that, the upper limit was 50 μmol/L, 80 μmol/L, 100 μmol/L, or 200 μmol/L as the required concentration to 50% of hemolysis (IC50).
Defibrinated sterile blood was centrifuged at 700×g for 3 minutes and, and the supernatant was removed for 100% of red blood cells. After the cleaning with physiological saline, the washed blood cells was suspended in the medium (Earle's balanced salt sodium, bicarbonate, 0.1 g/L L-glutamine without phenol red), and was diluted by 5% (5% RBC suspension).
The washed blood was diluted by 5% in water for injection (solution of complete hemolysis), and was used as the indication of optical density for complete hemolysis.
The compounds of the present invention solution in DMSO (several and doubling dilutions starting from 2.5 mmol/L, 4 mmol/L, 5 mmol/L, or 10 mmol/L), DMSO as the negative control, and Amphotericin B as the positive control were used, and each 5 μL of these was added in to a well of V-form 96 well type microplate.
Finally, the maximum concentration of the compounds of the present invention solution in DMSO was 50 μmol/L, 80 μmol/L, 100 μmol/L, or 200 μmol/L by adding 245 μL of the medium or 5% RBC suspension into the well.
Two hundred fifty μL of the solution of complete hemolysis was added into another well and the microplate was incubated at 37° C. in 5% of CO2 concentration for an hour.
After the incubation, each 100 μL of supernatants in wells was collected by centrifugation of the microplate at 300×g for 5 minutes and was located on a well of flat-form 96 well type microplate. An absorbance of each supernatant was measured at wavelength of 540 nm.
Percent hemolysis was calculated by using the followed equation. The required concentration to 50% of hemolysis (IC50) was calculated based on the percent hemolysis. […] Hemolysis (%)=(CR−VM)×100÷(VL−VR) Where:
CR: Absorbance of 5% RBC suspension incubated with the compounds of the present invention solution in DMSO
VM: Absorbance of medium incubated with the compounds of the present invention solution in DMSO
VL: Absorbance of solution of complete hemolysis
VR: Absorbance of 5% RBC suspension incubated with DMSO
The “hemolysis method” in the table means any tests the upper concentration of above IC50 are 50 μmol/L, 80 μmol/L, 100 μmol/L or 200 μmol/L. The “>50”, “>80”, “>100” or “>200” in the table means above IC50 value exceeded the each upper concentration.

[1] = hemolysis method 50 (upper concentration 50 μmol/L)
[2] = hemolysis method 100 (upper concentration 100 μmol/L)
[3] = Erythrocyte, 1 h, hemolysis method 50 (upper concentration 50 μmol/L)

| SMILES | pIC50 [1] | also measured |
| --- | --- | --- |
| C[C@@H]1[C@H](O)[C@@H](C)/C=C/C=C/C=C/C=C/C=C/C=C/C=C/[C@H](O[C@@H]2O[C@H](C)[C@@H](O)[C@H](N)[C@@H]2O)C[C@@H]2O[C@](O)(C[C@@H](O)C[C@@H](O)[C@H](O)CC[C@@H](O)C[C@@H](O)CC(=O)O[C@H]1C)C[C@H](O)[C@H]2NC(=O)N1CCC(N(C)C)CC1 [I-54] |  | pIC50 (hemolysis method 80 (upper concentration 80 μmol/L)): < 4.10 |
| COC(=O)CCCNC(=O)N[C@H]1[C@@H]2C[C@@H](O[C@@H]3O[C@H](C)[C@@H](O)[C@H](N)[C@@H]3O)/C=C/C=C/C=C/C=C/C=C/C=C/C=C/[C@H](C)[C@@H](O)[C@@H](C)[C@H](C)OC(=O)C[C@H](O)C[C@H](O)CC[C@@H](O)[C@H](O)C[C@H](O)C[C@](O)(C[C@@H]1O)O2 [I-55] | < 4.30 |  |
| C[C@@H]1[C@H](O)[C@@H](C)/C=C/C=C/C=C/C=C/C=C/C=C/C=C/[C@H](O[C@@H]2O[C@H](C)[C@@H](O)[C@H](N)[C@@H]2O)C[C@@H]2O[C@](O)(C[C@@H](O)C[C@@H](O)[C@H](O)CC[C@@H](O)C[C@@H](O)CC(=O)O[C@H]1C)C[C@H](O)[C@H]2NC(=O)NC1CN(C)C1 [I-62] |  | pIC50 [2]: 4.30 |
| C[C@@H]1[C@H](O)[C@@H](C)/C=C/C=C/C=C/C=C/C=C/C=C/C=C/[C@H](O[C@@H]2O[C@H](C)[C@@H](O)[C@H](N)[C@@H]2O)C[C@@H]2O[C@](O)(C[C@@H](O)C[C@@H](O)[C@H](O)CC[C@@H](O)C[C@@H](O)CC(=O)O[C@H]1C)C[C@H](O)[C@H]2NC(=O)NCCC(N)=O [I-81] | < 4.30 |  |
| C[C@@H]1[C@H](O)[C@@H](C)/C=C/C=C/C=C/C=C/C=C/C=C/C=C/[C@H](O[C@@H]2O[C@H](C)[C@@H](O)[C@H](N)[C@@H]2O)C[C@@H]2O[C@](O)(C[C@@H](O)C[C@@H](O)[C@H](O)CC[C@@H](O)C[C@@H](O)CC(=O)O[C@H]1C)C[C@H](O)[C@H]2NC(=O)NCCNC(N)=O [I-93] | < 4.30 |  |
| C[C@@H]1[C@H](O)[C@@H](C)/C=C/C=C/C=C/C=C/C=C/C=C/C=C/[C@H](O[C@@H]2O[C@H](C)[C@@H](O)[C@H](N)[C@@H]2O)C[C@@H]2O[C@](O)(C[C@@H](O)C[C@@H](O)[C@H](O)CC[C@@H](O)C[C@@H](O)CC(=O)O[C@H]1C)C[C@H](O)[C@H]2NC(=O)NCC[C@H](O)CO [I-146] | < 4.30 |  |
| CC1C=CC=CC=CC=CC=CC=CC=CC(OC2OC(C)C(O)C(N)C2O)CC2OC(O)(CC(O)CC(O)C(O)CCC(O)CC(O)CC(=O)OC(C)C(C)C1O)CC(O)C2NC(=O)NC1CCCC1O (stereo not shown) [I-207] |  | pIC50 [2]: < 4.00 |
| C[C@@H]1[C@H](O)[C@@H](C)/C=C/C=C/C=C/C=C/C=C/C=C/C=C/[C@H](O[C@@H]2O[C@H](C)[C@@H](O)[C@H](N)[C@@H]2O)C[C@@H]2O[C@](O)(C[C@@H](O)C[C@@H](O)[C@H](O)CC[C@@H](O)C[C@@H](O)CC(=O)O[C@H]1C)C[C@H](O)[C@H]2NC(=O)N(N)CCO [I-212] |  | pIC50 [2]: < 4.00 |
| C[C@@H]1[C@H](O)[C@@H](C)/C=C/C=C/C=C/C=C/C=C/C=C/C=C/[C@H](O[C@@H]2O[C@H](C)[C@@H](O)[C@H](N)[C@@H]2O)C[C@@H]2O[C@](O)(C[C@@H](O)C[C@@H](O)[C@H](O)CC[C@@H](O)C[C@@H](O)CC(=O)O[C@H]1C)C[C@H](O)[C@H]2NC(=O)NC(C)(CO)CO [I-213] |  | pIC50 [2]: < 4.00 |
| C[C@@H]1[C@H](O)[C@@H](C)/C=C/C=C/C=C/C=C/C=C/C=C/C=C/[C@H](O[C@@H]2O[C@H](C)[C@@H](O)[C@H](N)[C@@H]2O)C[C@@H]2O[C@](O)(C[C@@H](O)C[C@@H](O)[C@H](O)CC[C@@H](O)C[C@@H](O)CC(=O)O[C@H]1C)C[C@H](O)[C@H]2NC(=O)N1CC(NC[C@H](O)CO)C1 [I-226] | < 4.30 |  |
| C[C@@H]1[C@H](O)[C@@H](C)/C=C/C=C/C=C/C=C/C=C/C=C/C=C/[C@H](O[C@@H]2O[C@H](C)[C@@H](O)[C@H](N)[C@@H]2O)C[C@@H]2O[C@](O)(C[C@@H](O)C[C@@H](O)[C@H](O)CC[C@@H](O)C[C@@H](O)CC(=O)O[C@H]1C)C[C@H](O)[C@H]2NC(=O)NC1CCS(=O)(=O)C1 (stereo partly shown) [I-231] | < 4.30 |  |
| C[C@@H]1[C@H](O)[C@@H](C)/C=C/C=C/C=C/C=C/C=C/C=C/C=C/[C@H](O[C@@H]2O[C@H](C)[C@@H](O)[C@H](N)[C@@H]2O)C[C@@H]2O[C@](O)(C[C@@H](O)C[C@@H](O)[C@H](O)CC[C@@H](O)C[C@@H](O)CC(=O)O[C@H]1C)C[C@H](O)[C@H]2NC(=O)NC(CNS(N)(=O)=O)CN(C)C (stereo partly shown) [I-234] | < 4.30 |  |
| C[C@@H]1[C@H](O)[C@@H](C)/C=C/C=C/C=C/C=C/C=C/C=C/C=C/[C@H](O[C@@H]2O[C@H](C)[C@@H](O)[C@H](N)[C@@H]2O)C[C@@H]2O[C@](O)(C[C@@H](O)C[C@@H](O)[C@H](O)CC[C@@H](O)C[C@@H](O)CC(=O)O[C@H]1C)C[C@H](O)[C@H]2NC(=O)NCCOCCS(C)(=O)=O [I-241] | < 4.30 |  |
| C[C@@H]1[C@H](O)[C@@H](C)/C=C/C=C/C=C/C=C/C=C/C=C/C=C/[C@H](O[C@@H]2O[C@H](C)[C@@H](O)[C@H](N)[C@@H]2O)C[C@@H]2O[C@](O)(C[C@@H](O)C[C@@H](O)[C@H](O)CC[C@@H](O)C[C@@H](O)CC(=O)O[C@H]1C)C[C@H](O)[C@H]2NC(=O)NC(CCO)C(=O)O (stereo partly shown) [I-249] | < 4.30 |  |
| C[C@@H]1[C@H](O)[C@@H](C)/C=C/C=C/C=C/C=C/C=C/C=C/C=C/[C@H](O[C@@H]2O[C@H](C)[C@@H](O)[C@H](N)[C@@H]2O)C[C@@H]2O[C@](O)(C[C@@H](O)C[C@@H](O)[C@H](O)CC[C@@H](O)C[C@@H](O)CC(=O)O[C@H]1C)C[C@H](O)[C@H]2NC(=O)NC1(C(=O)O)COC1 [I-252] |  | pIC50 [3]: < 4.30 |
| C[C@@H]1[C@H](O)[C@@H](C)/C=C/C=C/C=C/C=C/C=C/C=C/C=C/[C@H](O[C@@H]2O[C@H](C)[C@@H](O)[C@H](N)[C@@H]2O)C[C@@H]2O[C@](O)(C[C@@H](O)C[C@@H](O)[C@H](O)CC[C@@H](O)C[C@@H](O)CC(=O)O[C@H]1C)C[C@H](O)[C@H]2NC(=O)NC(CO[C@H]1O[C@H](CO)[C@@H](O)[C@H](O)[C@@H]1O)CO[C@H]1O[C@H](CO)[C@@H](O)[C@H](O)[C@@H]1O [I-254] |  | pIC50 [3]: < 4.30 |
| C[C@@H]1[C@H](O)[C@@H](C)/C=C/C=C/C=C/C=C/C=C/C=C/C=C/[C@H](O[C@@H]2O[C@H](C)[C@@H](O)[C@H](N)[C@@H]2O)C[C@@H]2O[C@](O)(C[C@@H](O)C[C@@H](O)[C@H](O)CC[C@@H](O)C[C@@H](O)CC(=O)O[C@H]1C)C[C@H](O)[C@H]2NC(=O)NOCC(CO)CO [I-255] | < 4.30 |  |
| C[C@@H]1[C@H](O)[C@@H](C)/C=C/C=C/C=C/C=C/C=C/C=C/C=C/[C@H](O[C@@H]2O[C@H](C)[C@@H](O)[C@H](N)[C@@H]2O)C[C@@H]2O[C@](O)(C[C@@H](O)C[C@@H](O)[C@H](O)CC[C@@H](O)C[C@@H](O)CC(=O)O[C@H]1C)C[C@H](O)[C@H]2NC(=O)NC1(C#N)COC1 [I-258] | < 4.30 |  |
| CCN(O)C(=O)N[C@H]1[C@@H]2C[C@@H](O[C@@H]3O[C@H](C)[C@@H](O)[C@H](N)[C@@H]3O)/C=C/C=C/C=C/C=C/C=C/C=C/C=C/[C@H](C)[C@@H](O)[C@@H](C)[C@H](C)OC(=O)C[C@H](O)C[C@H](O)CC[C@@H](O)[C@H](O)C[C@H](O)C[C@](O)(C[C@@H]1O)O2 [I-279] | < 4.30 |  |
| CCCN(O)C(=O)N[C@H]1[C@@H]2C[C@@H](O[C@@H]3O[C@H](C)[C@@H](O)[C@H](N)[C@@H]3O)/C=C/C=C/C=C/C=C/C=C/C=C/C=C/[C@H](C)[C@@H](O)[C@@H](C)[C@H](C)OC(=O)C[C@H](O)C[C@H](O)CC[C@@H](O)[C@H](O)C[C@H](O)C[C@](O)(C[C@@H]1O)O2 [I-280] | < 4.30 |  |
| CON(C)C(=O)N[C@H]1[C@@H]2C[C@@H](O[C@@H]3O[C@H](C)[C@@H](O)[C@H](N)[C@@H]3O)/C=C/C=C/C=C/C=C/C=C/C=C/C=C/[C@H](C)[C@@H](O)[C@@H](C)[C@H](C)OC(=O)C[C@H](O)C[C@H](O)CC[C@@H](O)[C@H](O)C[C@H](O)C[C@](O)(C[C@@H]1O)O2 [I-282] | < 4.30 |  |
| C[C@@H]1[C@H](O)[C@@H](C)/C=C/C=C/C=C/C=C/C=C/C=C/C=C/[C@H](O[C@@H]2O[C@H](C)[C@@H](O)[C@H](N)[C@@H]2O)C[C@@H]2O[C@](O)(C[C@@H](O)C[C@@H](O)[C@H](O)CC[C@@H](O)C[C@@H](O)CC(=O)O[C@H]1C)C[C@H](O)[C@H]2NC(=O)N1CCC1C(=O)O (stereo partly shown) [I-283] | < 4.30 |  |
